Key:
A549 cells = assay: Viability of A549 cells; format: cell-based, human; conditions: A549 cells, single agent
Method: (A) Pgrmc1 (SEQ ID NO: 7) shares homology with AtMAPR2 (SEQ ID NO: 8) (underlined residues), which was the target for a screen for small molecule ligands. The putative heme-binding Tyr106 and Tyr112 are indicated with black boxes. (B) The molecular structure of AG-205 includes multiple aromatic components. (C) Spectroscopic scan of Pgrmc1 with vehicle control compared with vehicle plus 50 µM AG-205. The decrease in relative absorbance at 400 nm is consistent with an AG-205-induced change in the spectral properties of Pgrmc1-heme. The scan is representative of four separate scans using different Pgrmc1 protein preparations. The lower scan is a comparison of purified Pgrmc1 without and with the vehicle control (DMSO). Panels D (A549 cells) and E (MDA-MB-231 cells) are viability assays of cells maintained in 0.1% serum (solid line) or 10% serum (dashed line) and treated with increasing doses of AG-205. Percent viability was determined by cell counting, and “% viability” refers to the cell number relative to the untreated control.
(§1) Tissue culture. MDA-MB-468 cells were a kind gift from Dr. Rina Plattner of the University of Kentucky and were maintained in medium consisting of Dulbecco's Modified Eagle Medium containing 10% serum supreme (Fisher) and antibiotics. Cells were grown at 37° C. in 5% CO2 in air. A549 and HCC827 lung cancer cells, as well as SK-Br-3 breast cancer cells were obtained from the ATCC (American Type Culture Collection) and were grown under the same conditions. The H1650 lung cancer cell line was a kind gift from Dr. Heinz Kohler of the University of Kentucky. The Pgrmc1 ligand AG-205 was purchased from Timtec, Inc. The EGFR inhibitor AG1478 was from Biomol, Inc. and was used at a concentration range of 0.8-40 μM.
(§2) Proliferation, anchorage-independent growth and migration assays. For growth curves, cells were plated in 24 well dishes and grown in 10% serum-containing medium. At various times, the cells were harvested with trypsin and fixed with formaldehyde added to a final concentration of 3.7%. Following the harvest of the final time point, the cells from each time point were counted using a Bright-line hemocytometer (Hausser Scientific).
(§3) MTT viability assays were performed as described previously. Briefly, cells were plated in 96-well tissue culture dishes and grown in various media with different drug doses. The cells were then incubated with 0.5 mg/ml of 3-[4,5-dimethylthiazol-2-y]-2,5-diphenyltetrazolium bromide for 1.5 hours, at which time the media was removed, the precipitated crystals were dissolved in dimethyl sulfoxide, and the absorbance at 590 nm was measured using a Bio-Tek μQuant spectrophotometer.

MDA-MB-468 cells = assay: Viability / proliferation of MDA-MB-468 cells; format: cell-based, human; conditions: MDA-MB-468 cells, increasing doses of AG1478, MTT assay
Method: as §1, §2, §3

SMILES: COc1cc2ncnc(Nc3cccc(Cl)c3)c2cc1OC [AG1478, reference compound]
- decrease in viability / cells killed (A549 cells): 25%
- change in proliferation rate between siCON and siPGR-transfected cells (MDA-MB-468 cells): largely blocked
